Legend:
[1] = test system: Angiogenesis in CAM model; experiment: Neovascularization on the CAM (chick chorioallantoic membrane model of angiogenesis); type: in vivo, chicken; details: 30 ug; unit assumed
How it was run: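 Chick CAM of 10-day embryos given filter disks pretreated with cortisone acetate and saturated with bFGF (1 μg/ml) or other pro-angiogenic factors. After 24-48 hr, 10-25 ul test agent was injected intravenously or applied topically. After 3 days at 37° C, vessel branch points under each disk were counted at 50× (8 CAMs/group) and converted to % inhibition relative to positive and negative controls.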

lipid peroxidation = experiment: Lipid peroxidation inhibition (method of Ohkawa); type: biochemical
[2] = test system: Human neuroblastoma SKN-SH cells; experiment: Chemoresistance: cancer cell viability (MTT) in presence or absence of doxorubicin; type: cell-based; details: compound alone; P<0.001
How it was run: (§1)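 Doxorubicin-resistant SKN-SH neuroblastoma cells, selected by stepwise exposure to 10^−9–10^−6 M doxorubicin over 3 months, in DMEM/10% FBS at 37 °C. Treated with doxorubicin alone or with hydroxylamine for 72 h (96 h in one variant). MTT read at 570 nm, survival relative to untreated cells.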

[3] = test system: Human neuroblastoma SKN-SH cells, resistant to doxorubicin; experiment: as above; type: cell-based; details: for Mean OD (×10^−3), cancer cell viability: compound 50 ug/mL, MTT
How it was run: as §1

Compound: CC1(C)CC(Oc2nsnc2N2CCOCC2)CC(C)(C)N1O.Cl [Compound 4, 4-(4-(2,2,6,6-tetramethylpiperidin-1-hydroxyl-4-yloxy)-1,2,5-thiazol-3-yl)morpholine]
- Percent inhibition of angiogenesis in CAM model at 30 ug [1]: 92.8%
- % Lipid Peroxidation inhibition (at 1 uM) (lipid peroxidation; 1 uM): 87.0%
- Lipid Peroxidation % Inhibition (lipid peroxidation; 10 uM): 91.4%
- killing of doxorubicin-sensitive cells [2]: enhanced the killing
- reversal of drug resistance ([3]; combined with doxorubicin, osteosarcoma, breast cancer, and neuroblastoma): strong ability to reverse drug resistance
- Mean OD (×10^−3), cancer cell viability ([3]; Dox. 10^−6 M present (+)): 88.00 ×10^−3
- Mean OD (×10^−3), cancer cell viability ([3]; Dox. absent (−)): 468.50 ×10^−3
- killing of doxorubicin-resistant cells ([3]; compound alone, P<0.001): enhanced the killing

Reference: patent US20080280890A1, “HYDROXYLAMINE COMPOUNDS AND METHODS OF THEIR USE” (priority 2007, published 2008)
